Results taken from ChEMBL document CHEMBL5465560, “Selectivity Literature for EUbOPEN Chemogenomic Library” (2024).

Experiments:
[1] = biological target: T1, Tyrosine-protein kinase Mer (Homo sapiens) (UniProt Q12866); assay: Selectivity interaction (KinomeScan (DiscoverX)) EUB0000229b MERTK; conditions: at 10 µM
T1 sequence (whole entry): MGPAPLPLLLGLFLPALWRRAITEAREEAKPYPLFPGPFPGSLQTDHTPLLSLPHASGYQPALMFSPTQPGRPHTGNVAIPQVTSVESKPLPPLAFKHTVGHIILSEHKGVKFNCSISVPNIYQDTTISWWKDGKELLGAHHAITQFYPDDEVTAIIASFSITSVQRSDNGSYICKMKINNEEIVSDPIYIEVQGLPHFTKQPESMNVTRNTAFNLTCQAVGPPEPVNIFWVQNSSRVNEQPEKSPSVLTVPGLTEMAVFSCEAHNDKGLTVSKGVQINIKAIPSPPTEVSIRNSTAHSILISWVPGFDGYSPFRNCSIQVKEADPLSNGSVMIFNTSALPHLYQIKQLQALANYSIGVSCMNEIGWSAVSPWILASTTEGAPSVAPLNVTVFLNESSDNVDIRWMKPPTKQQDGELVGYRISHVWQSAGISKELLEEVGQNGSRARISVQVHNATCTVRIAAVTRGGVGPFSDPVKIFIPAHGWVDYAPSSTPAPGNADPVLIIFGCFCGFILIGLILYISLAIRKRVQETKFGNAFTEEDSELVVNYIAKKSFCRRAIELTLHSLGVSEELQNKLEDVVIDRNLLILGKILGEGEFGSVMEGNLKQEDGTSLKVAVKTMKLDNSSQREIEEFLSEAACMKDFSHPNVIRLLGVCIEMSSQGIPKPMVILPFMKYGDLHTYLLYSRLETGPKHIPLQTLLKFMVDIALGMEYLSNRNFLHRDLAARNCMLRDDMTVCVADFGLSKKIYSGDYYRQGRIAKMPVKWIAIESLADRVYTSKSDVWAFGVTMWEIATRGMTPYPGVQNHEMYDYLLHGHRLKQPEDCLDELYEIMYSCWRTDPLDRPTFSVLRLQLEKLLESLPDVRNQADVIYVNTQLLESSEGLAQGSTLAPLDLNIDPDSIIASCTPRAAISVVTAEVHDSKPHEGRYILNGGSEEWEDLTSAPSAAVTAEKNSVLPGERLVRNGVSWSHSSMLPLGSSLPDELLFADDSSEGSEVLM

[2] = biological target: T2, Ephrin type-A receptor 1 (Homo sapiens) (UniProt P21709); assay: Selectivity interaction (Upstate Kinase Profiler service (Millipore)) EUB0000056c EPHA1; conditions: at 1 µM
T2 sequence (whole entry): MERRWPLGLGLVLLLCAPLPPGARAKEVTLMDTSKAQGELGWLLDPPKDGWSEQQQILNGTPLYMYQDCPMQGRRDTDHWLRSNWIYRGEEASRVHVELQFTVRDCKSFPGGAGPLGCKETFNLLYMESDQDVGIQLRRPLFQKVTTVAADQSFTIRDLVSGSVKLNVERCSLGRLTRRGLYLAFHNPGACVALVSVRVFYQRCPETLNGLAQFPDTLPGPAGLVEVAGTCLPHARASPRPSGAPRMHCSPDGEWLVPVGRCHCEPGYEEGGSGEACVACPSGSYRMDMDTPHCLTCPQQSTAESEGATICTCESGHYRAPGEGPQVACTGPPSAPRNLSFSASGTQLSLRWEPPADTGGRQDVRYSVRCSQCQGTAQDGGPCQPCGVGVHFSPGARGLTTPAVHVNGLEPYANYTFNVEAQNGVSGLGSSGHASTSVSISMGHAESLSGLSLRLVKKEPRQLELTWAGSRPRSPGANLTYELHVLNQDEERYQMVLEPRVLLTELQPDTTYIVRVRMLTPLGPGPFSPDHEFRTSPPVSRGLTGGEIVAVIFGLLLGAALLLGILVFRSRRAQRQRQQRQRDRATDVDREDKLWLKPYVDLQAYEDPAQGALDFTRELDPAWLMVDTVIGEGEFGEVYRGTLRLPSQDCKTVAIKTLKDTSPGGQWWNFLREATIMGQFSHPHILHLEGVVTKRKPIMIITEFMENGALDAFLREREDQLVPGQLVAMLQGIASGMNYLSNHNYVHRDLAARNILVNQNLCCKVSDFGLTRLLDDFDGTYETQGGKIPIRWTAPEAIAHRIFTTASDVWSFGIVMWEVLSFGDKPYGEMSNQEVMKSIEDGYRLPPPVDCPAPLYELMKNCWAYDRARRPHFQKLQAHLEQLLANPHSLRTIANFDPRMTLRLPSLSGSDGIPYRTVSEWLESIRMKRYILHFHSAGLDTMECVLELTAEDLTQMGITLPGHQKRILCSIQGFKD

[3] = biological target: Serine/threonine-protein kinase 35 (Homo sapiens) (UniProt Q8TDR2); assay: Selectivity interaction (KinomeScan (DiscoverX)) EUB0001079a STK35; conditions: at 1 µM
[4] = biological target: T3, Serine/threonine-protein kinase PLK4 (Homo sapiens) (UniProt O00444); assay: Selectivity interaction (Ambit KINOMEscan and KiNATiv profiling in Jurkat cells) EUB0000090b PLK4; format: cell-based; conditions: at 1 µM
T3 sequence (whole entry): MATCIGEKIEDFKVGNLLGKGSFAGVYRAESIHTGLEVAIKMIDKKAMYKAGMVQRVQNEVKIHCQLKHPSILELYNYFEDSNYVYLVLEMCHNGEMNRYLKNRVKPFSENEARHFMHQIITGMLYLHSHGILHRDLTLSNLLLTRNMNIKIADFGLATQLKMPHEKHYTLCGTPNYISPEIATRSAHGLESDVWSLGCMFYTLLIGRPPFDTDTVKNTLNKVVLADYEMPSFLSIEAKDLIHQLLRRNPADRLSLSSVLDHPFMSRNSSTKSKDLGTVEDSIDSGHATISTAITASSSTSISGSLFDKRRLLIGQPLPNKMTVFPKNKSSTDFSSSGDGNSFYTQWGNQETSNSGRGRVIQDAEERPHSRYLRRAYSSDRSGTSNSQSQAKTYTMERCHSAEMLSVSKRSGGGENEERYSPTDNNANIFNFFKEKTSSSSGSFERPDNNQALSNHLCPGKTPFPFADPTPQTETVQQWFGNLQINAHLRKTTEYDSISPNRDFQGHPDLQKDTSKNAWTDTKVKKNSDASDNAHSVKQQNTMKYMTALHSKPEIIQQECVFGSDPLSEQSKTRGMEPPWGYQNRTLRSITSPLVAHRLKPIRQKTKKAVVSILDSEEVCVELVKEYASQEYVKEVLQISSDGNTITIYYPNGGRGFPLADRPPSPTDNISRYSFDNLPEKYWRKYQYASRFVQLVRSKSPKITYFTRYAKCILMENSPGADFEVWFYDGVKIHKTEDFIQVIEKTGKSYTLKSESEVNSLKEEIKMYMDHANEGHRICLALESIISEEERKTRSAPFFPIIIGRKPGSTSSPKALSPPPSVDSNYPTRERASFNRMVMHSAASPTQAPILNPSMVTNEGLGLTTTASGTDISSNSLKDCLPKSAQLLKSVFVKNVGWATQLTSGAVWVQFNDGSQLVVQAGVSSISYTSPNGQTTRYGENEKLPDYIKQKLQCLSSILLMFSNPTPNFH

Sequence of Serine/threonine-protein kinase 35 (Homo sapiens) (Q8TDR2 whole entry): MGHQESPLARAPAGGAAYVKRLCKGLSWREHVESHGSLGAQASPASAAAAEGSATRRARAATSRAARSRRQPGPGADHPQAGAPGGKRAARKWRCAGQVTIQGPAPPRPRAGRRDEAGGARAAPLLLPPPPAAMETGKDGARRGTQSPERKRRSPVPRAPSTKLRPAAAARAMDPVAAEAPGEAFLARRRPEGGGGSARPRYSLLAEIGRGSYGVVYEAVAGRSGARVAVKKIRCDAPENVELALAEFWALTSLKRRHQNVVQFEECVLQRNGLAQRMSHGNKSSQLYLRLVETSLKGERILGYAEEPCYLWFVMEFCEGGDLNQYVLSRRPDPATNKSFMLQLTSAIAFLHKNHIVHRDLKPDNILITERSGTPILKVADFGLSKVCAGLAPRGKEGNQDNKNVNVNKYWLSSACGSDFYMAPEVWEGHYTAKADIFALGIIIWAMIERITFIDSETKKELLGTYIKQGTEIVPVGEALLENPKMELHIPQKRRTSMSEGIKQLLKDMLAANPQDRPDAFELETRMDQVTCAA

COc1cc(N(C)c2ccnc3ccc(C(F)(F)F)cc23)cc(OC)c1OC
% binding [1]: 100%

Cc1ccc(-c2ccc3c(ccc4sc5c(c43)NC[C@@H](C)NC5=O)n2)cn1
% of inhibition [2]: -6%

Nc1cnc(N2CCc3cc(S(=O)(=O)Nc4c(F)cc(Cl)cc4F)cc(N4CCCC4=O)c32)nc1 [TP-020n]
% of control [3]: 100%

CN(C)C/C=C/C(=O)Nc1ccc(C(=O)N2CCCC(Nc3ncc(Cl)c(-c4c[nH]c5ccccc45)n3)C2)cc1 (centres undefined)
% of control [4]: 82%
